Reference: US20210137829A1, “TOPICAL DELIVERY SYSTEMS FOR ACTIVE COMPOUNDS” (Yissum Research Development Company of the Hebrew …, priority 2017, published 2021)

Columns and labels:
[1] = Self-diffusion NMR (SD-NMR); assay type: physicochemical
Protocol: In order to characterize the structure of the oily domains, self-diffusion NMR (SD-NMR) analysis was carried out. SD-NMR analysis provides an indication on the location of each component within the structure, by calculating the diffusion coefficient of each component in the system.
SD-NMR measurements were performed with a Bruker AVII 500 spectrometer equipped with GREAT 1/10 gradients, a 5 mm BBO and a 5 mm BBI probe, both with a z-gradient coil and with a maximum gradient strength of 0.509 and 0.544 T m^−1, respectively. Diffusion was measured using an asymmetric bipolar longitudinal eddy-current delay (bpLED) experiment, or and asymmetric bipolar stimulated echo (known as one-shot) experiment with convection compensation and an asymmetry factor of 20%, ramping the strongest gradient from 2% to 95% of maximum strength in 32 steps. The spectrum was processed with the Bruker TOPSPIN software. NMR spectra were recorded at 25±0.2° C. The components were identified by their chemical shift in 1H NMR.

[2] = Water dilution of the oily phase; assay type: physicochemical; settings: oily phase loaded with active; un-loaded phase separates above 50 wt % water
Protocol: 2 wt % DCF-Na loaded oily composition which is substantially devoid of water (i.e. a concentrate) was prepared according to the process described above. The un-diluted oily composition was constituted by self-assembled oil-solvated clusters or short domains of surfactants, which differ from the classical reverse micelles. These concentrates are dilutable by any suitable diluent, for example by purified water, to form a diluted delivery system.
It was noted that the oily carrier, i.e. the oily composition without DCF-Na, could not be fully diluted.

O=C([O-])Cc1ccccc1Nc1c(Cl)cccc1Cl.[Na+] [DCF-Na, diclofenac sodium]
Diffusion coefficient Dx of DCF-Na ([1]; 2 wt % DCF-Na formulation, FIGS. 11A-11B): 0.1×10^−11 m^2/sec | Diffusion coefficient of DCF-Na, gelled vs non-viscosified ([1]; 80 wt % water, 0.75 wt % gellant): lower in the gelled formulation than in the non-viscosified system | Dilutability of the oily phase with water [2]: fully dilutable up to 90 wt %
